Assay results from BindingDB's records for doi:10.1074/jbc.M114.558353 (Harvard School of Public Health, 2014).

Experiments:
[1] = biological target: T1, Dihydroorotate dehydrogenase (quinone), mitochondrial (Plasmodium falciparum (isolate 3D7), UniProt Q08210); experiment: DHODH Biochemical Assay
T1 sequence (Q08210 whole entry): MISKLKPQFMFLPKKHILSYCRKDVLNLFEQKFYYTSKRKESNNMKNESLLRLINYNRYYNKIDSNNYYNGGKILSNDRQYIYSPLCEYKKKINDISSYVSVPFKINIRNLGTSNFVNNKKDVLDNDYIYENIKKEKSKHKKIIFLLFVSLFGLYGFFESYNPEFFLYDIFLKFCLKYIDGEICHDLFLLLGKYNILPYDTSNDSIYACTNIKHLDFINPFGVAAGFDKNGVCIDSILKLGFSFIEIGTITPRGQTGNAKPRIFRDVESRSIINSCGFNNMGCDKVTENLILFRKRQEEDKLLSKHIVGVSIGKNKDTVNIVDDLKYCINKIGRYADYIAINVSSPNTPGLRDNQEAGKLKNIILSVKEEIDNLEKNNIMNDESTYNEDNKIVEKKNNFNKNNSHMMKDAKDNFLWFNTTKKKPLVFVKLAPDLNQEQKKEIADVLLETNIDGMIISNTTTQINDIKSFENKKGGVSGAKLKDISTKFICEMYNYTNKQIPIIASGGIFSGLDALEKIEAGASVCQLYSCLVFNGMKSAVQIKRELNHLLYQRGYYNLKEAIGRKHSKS

[2] = biological target: Dihydroorotate dehydrogenase (quinone), mitochondrial (Homo sapiens, UniProt Q02127); experiment: DHODH Biochemical Assay
Chain of Dihydroorotate dehydrogenase (quinone), mitochondrial (Homo sapiens, UniProt Q02127) (Q02127 whole entry): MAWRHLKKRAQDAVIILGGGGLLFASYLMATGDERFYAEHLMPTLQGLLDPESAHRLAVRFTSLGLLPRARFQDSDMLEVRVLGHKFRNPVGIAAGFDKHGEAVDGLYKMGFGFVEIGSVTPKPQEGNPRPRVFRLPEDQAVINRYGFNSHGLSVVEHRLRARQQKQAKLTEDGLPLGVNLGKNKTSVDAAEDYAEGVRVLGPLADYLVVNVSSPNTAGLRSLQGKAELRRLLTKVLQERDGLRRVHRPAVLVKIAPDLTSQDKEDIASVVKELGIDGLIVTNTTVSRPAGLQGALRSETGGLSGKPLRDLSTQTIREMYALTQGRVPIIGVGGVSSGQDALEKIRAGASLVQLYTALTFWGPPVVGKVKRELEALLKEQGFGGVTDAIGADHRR

Row | Structure (SMILES) | IC50 [1] [µM] | IC50 [2] [µM]
1 | Cc1nc2c(C#N)cccc2n1-c1ccc(C(=O)NC2CC2)s1 | 0.08 | > 30
2 | CCSc1nnc(C2CCCN(CC(=O)Nc3cc(C(F)(F)F)ccc3Cl)C2)n1CC (stereo not drawn) [GSK3] | 1.7 | > 30
3 | Cc1nnc2c3ccccc3c(N3CCc4ccccc4C3)nn12 [IDI-6253] | 3.5 | 3.8
4 | CCOc1cccc(=O)c2c(C)n(Cc3ccc(Cl)cc3)c(C)c12 [IDI-6273] | 13.5 | > 30
